Measurements: patent publication EP2801573A1, “Hydantoine derivatives as CD38 inhibitors” (SANOFI, priority 2013, dated 2014)

Columns and labels:
[1] = molecular target: T1, human recombinant CD38 enzyme (Homo sapiens, UniProt P28907); assay: Human recombinant enzyme assay (fluorimetric CD38 enzyme assay, ε-NAD substrate); assay type: biochemical; conditions: recombinant CD38 100 ng/ml, ε-NAD 100 µM, pH = 6.0, 37°C, reaction time 30 min; read-out: IC50 (nM) ENAD
T1 construct: purchased R&D Systems H7006
T1 sequence (P28907 1-300): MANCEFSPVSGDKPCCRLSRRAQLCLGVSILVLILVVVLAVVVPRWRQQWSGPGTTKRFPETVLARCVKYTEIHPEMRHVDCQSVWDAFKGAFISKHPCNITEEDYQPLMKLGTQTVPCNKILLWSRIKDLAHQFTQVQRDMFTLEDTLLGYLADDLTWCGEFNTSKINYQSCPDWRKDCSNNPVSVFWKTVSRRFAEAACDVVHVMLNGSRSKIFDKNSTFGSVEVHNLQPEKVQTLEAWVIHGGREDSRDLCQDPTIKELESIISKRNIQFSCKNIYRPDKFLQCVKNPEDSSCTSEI
Protocol: Enzyme assay on human recombinant CD38 enzyme were performed in order to determine the in vitro potency of the newly synthesized compounds. IC50 values were determined for the test compounds and used to explore the structure-activity relationships (SAR).
(§1) N6-etheno-NAD (ε-NAD), a NAD analogue previously shown to be a convenient substrate of CD38 enzyme activity (Graeff et al. J. Biol. Chem. 269, pp 30260-30367, […]) was used to measure the activity of human recombinant CD38 and cell surface enzyme activity.
A fluorimetric CD38 enzyme assay was performed as described by Graeff et al. The reaction was started with 10 µl of N6-etheno-NAD (ε-NAD) substrate, final concentration 100 µM, in a final volume of 0.1 ml buffered with 50 mM HEPES, 0.05% BRIJ, pH = 6.0 containing 100 ng/ml recombinant CD38 (R&D Systems, H7006). Cleavage of ε-NAD, which causes a 10-fold fluorescence enhancement, was continuously followed at 37°C in a BMG Polarstar spectrofluorometer at an emission wavelength of 410 nm and an excitation of 300 nm, reaction time was 30 min. NADase activity was expressed as Δ relative fluorescence/min. The rate of enzyme reactions were compared in the presence and absence of inhibitor molecule, the IC50 values were calculated with Biostat Speed program.

[2] = molecular target: T2, natural cell surface human CD38 enzyme (Homo sapiens, UniProt P28907); assay: Cell surface enzyme assay on A549 cells; assay type: cell-based; conditions: A549 human lung epithelial cells, pre-incubated 15 min, ε-NAD 100 µM, 60 min, pH=7.4
T2 construct: The A549 cells express active CD38 enzyme on the cell surface; endogenous in cells; host or cells: A549 human lung epithelial cells (ATCC CCL 185)
T2 sequence (P28907 1-300): T1 sequence (P28907 1-300)
Protocol: A549 human lung epithelial cells were used as enzyme source. The A549 cells express active CD38 enzyme on the cell surface.
as §1
Type II-like human lung epithelial cells A 549 (ATCC CCL 185) were grown in RPMI 1640 medium supplemented with 10% fetal calf serum, 2mM 1-glutamine and penicillin/streptomycin 1% in a humidified incubator with an atmosphere of 95% air and 5% CO2 at 37 °C. At about 70-80% confluence, cells were detached with trypsin/EDTA solution to form a cell suspension and counted. Cell viability was higher as 95% using trypan blue dye. Cells were plated at a density of 500.000 cells/well (24 well plate), before 24 hours of starting the enzyme assay. The medium was removed and replaced by assay buffer (20 mM HEPES, pH=7.4 containing 140 mM NaCl, 5 mM KCl, 1 mM MgSO4 1 mM CaCl2, 1mM Na2HPO4, 5.5 mM glucose).
A549 cells (800.000/well, 500 µl) were pre-incubated in the presence and absence of inhibitors for 15 min before the addition of ε-NAD, final substrate concentration was 100 µM. After 60 min, the plate was centrifuged and 100 µl of supernatant was removed and measured fluorimetrically in BMG Polarstar spectrofluorimeter at an emission wavelength of 410 nm and an excitation of 300 nm. The mean difference in the fluorescence between reaction stopped at 0 and 60 min was used an arbitrary unit of NADase activity. The NADase activity in the absence and presence of inhibitors were compared and IC50 values were calculated.

| SMILES | IC50 [1] [nM] | IC50 [2] [nM] |
| --- | --- | --- |
| O=C1N/C(=C\c2ccncc2)C(=O)N1CC1CCOCC1 [Compound 56, 5-[1-Pyridin-4-yl-meth-(Z)-ylidene]-3-(tetrahydro-pyran-4-ylmethyl)-imidazolidine-2,4-dione] | 20 | 137 |
| O=C1N/C(=C\c2ccncc2)C(=O)N1C1CC(F)(F)C1 [Compound 53, 3-(3,3-Difluoro-cyclobutyl)-5-[1-pyridin-4-yl-meth-(Z)-ylidene]-imidazolidine-2,4-dione] | 50 | 249 |
| O=C(c1cccc(N2C(=O)N/C(=C\c3ccncc3)C2=O)c1)N1CCOCC1 [Compound 28, 3-[3-(Morpholine-4-carbonyl)-phenyl]-5-[1-pyridin-4-yl-meth-(Z)-ylidene]-imidazolidine-2,4-dione] | 50 | 359 |
| O=C1N/C(=C\c2ccncc2)C(=O)N1CC1CCCO1 (centres unmarked) [Compound 60, 5-[1-Pyridin-4-yl-meth-(Z)-ylidene]-3-(tetrahydro-furan-2-ylmethyl)-imidazolidine-2,4-dione] | 22 | 81.8 |
| O=C1N/C(=C\c2ccncc2)C(=O)N1CC(F)(F)F [Compound 62, 5-[1-Pyridin-4-yl-meth-(Z)-ylidene]-3-(2,2,2-trifluoro-ethyl)-imidazolidine-2,4-dione] | 57 | 604 |
| CC(C)(O)CN1C(=O)N/C(=C\c2ccncc2)C1=O [Compound 61, 3-(2-Hydroxy-2-methyl-propyl)-5-[1-pyridin-4-yl-meth-(Z)-ylidene]-imidazolidine-2,4-dione] | 25 | 288 |
| O=C1N/C(=C\c2ccncc2)C(=O)N1CC1(O)CCC1 [Compound 59, 3-(1-Hydroxy-cyclobutylmethyl)-5-[1-pyridin-4-yl-meth-(Z)-ylidene]-imidazolidine-2,4-dione] | 35 | 98.5 |
| Cc1cccc(N2C(=O)N/C(=C\c3ccncc3)C2=O)c1 [Compound 3, 5-[1-Pyridin-4-yl-meth-(Z)-ylidene]-3-m-tolyl-imidazolidine-2,4-dione] | 50 | – |
| O=C1N/C(=C\c2ccncc2)C(=O)N1c1ccc(OC(F)(F)F)cc1 [Compound 30, 5-[1-Pyridin-4-yl-meth-(Z)-ylidene]-3-(4-trifluoromethoxy-phenyl)-imidazolidine-2,4-dione] | 28 | – |
| O=C1N/C(=C\c2ccncc2)C(=O)N1c1ccc(Cl)cc1 [Compound 2, 3-(4-Chloro-phenyl)-5-[1-pyridin-4-yl-meth-(Z)-ylidene]-imidazolidine-2,4-dione] | 30 | 181 |
| O=C1N/C(=C\c2ccncc2)C(=O)N1CCCN1CCOCC1 [Compound 44, 3-(3-Morpholin-4-yl-propyl)-5-[1-pyridin-4-yl-meth-(Z)-ylidene]-imidazolidine-2,4-dione] | 151 | – |
| O=C1N/C(=C\c2ccncc2)C(=O)N1CC1(O)CCCCC1 [Compound 55, 3-(1-Hydroxy-cyclohexylmethyl)-5-[1-pyridin-4-yl-meth-(Z)-ylidene]-imidazotidine-2,4-dione] | 55 | 242 |
| CCCCc1ccc(N2C(=O)N/C(=C\c3ccncc3)C2=O)cc1 [Compound 24, 3-(4-Butyl-phenyl)-5-[1-pyridin-4-yl-meth-(Z)-ylidene]-imidazolidine-2,4-dione] | 80 | 297 |
| CS(=O)(=O)c1ccc(N2C(=O)N/C(=C\c3ccncc3)C2=O)cc1 [Compound 26, 3-(4-Methanesulfonyl-phenyl)-5-[1-pyridin-4-yl-meth-(Z)-ylidene]-imidazolidine-2,4-dione] | 22 | – |
| O=C1N/C(=C\c2ccncc2)C(=O)N1CC1(O)CCCC1 [Compound 58, 3-(1-Hydroxy-cyclopentylmethyl)-5-[1-pyridin-4-yl-meth-(Z)-ylidene]-imidazolidine-2,4-dione] | 30 | 246 |
| O=C(c1ccc(N2C(=O)N/C(=C\c3ccncc3)C2=O)cc1)N1CCCC1 [Compound 48, 5-[1-Pyridin-4-yl-meth-(Z)-ylidene]-3-[4-(pyrrolidine-1-carbonyl)-phenyl]-imidazolidine-2,4-dione] | 52 | – |
| CCC(C)N1C(=O)N/C(=C\c2ccncc2)C1=O (centres unmarked) [Compound 42, 3-sec-Butyl-5-[1-pyridin-4-yl-meth-(Z)-ylidene]-imidazolidine-2,4-dione] | 868 | – |
| CCOc1ccc(CCN2C(=O)N/C(=C\c3ccncc3)C2=O)cc1OCC [Compound 36, 3-[2-(3,4-Diethoxy-phenyl)-ethyl]-5-[1-pyridin-4-yl-meth-(Z)-ylidene]-imidazolidine-2,4-dione] | 250 | – |
| O=C(O)CN1C(=O)N/C(=C\c2ccncc2)C1=O [Compound 46, {2,5-Dioxo-4-[1-pyridin-4-yl-meth-(Z)-ylidene]-imidazolidin-1-yl}-acetic acid] | 490 | – |
| O=C(O)Cc1ccc(N2C(=O)N/C(=C\c3ccncc3)C2=O)cc1 [Compound 32, (4-{2,5-Dioxo-4-[1-pyndin-4-yl-meth-(Z)-ylidene]-imidazolidin-1-yl}-phenyl)-acetic acid] | 38 | – |
| O=C1N/C(=C\c2ccncc2)C(=O)N1c1ccc(I)cc1 [Compound 33, 3-(4-Iodo-phenyl)-5-[1-pyridin-4-yl-meth-(Z)-ylidene]-imidazolidine-2,4-dione] | 38 | 272 |
| O=C1N/C(=C\c2ccncc2)C(=O)N1CC1(CO)CCC1 [Compound 63, 3-(1-Hydroxymethyl-cyclobutylmethyl)-5-[1-pyridin-4-yl-meth-(Z)-ylidene]-imidazolidine-2,4-dione] | 12 | – |
| O=C1N/C(=C\c2ccncc2)C(=O)N1Cc1ccccc1 [Compound 7, 3-Benzyl-5-[1-pyridin-4-yl-meth-(Z)-ylidene]-imidazolidine-2,4-dione] | 50 | – |
| O=C(O)c1ccc(N2C(=O)N/C(=C\c3ccncc3)C2=O)cc1 [Compound 15, 4-{2,5-Dioxo-4-[1-pyridin-4-yl-meth-(Z)-ylidene]-imidazolidin-l-yl}-benzoic acid] | 110 | – |
| CCCCCCN1C(=O)N/C(=C\c2ccncc2)C1=O [Compound 22, 3-Hexyl-5-[1-pyridin-4-yl-meth-(Z)-ylidene]-imidazotidine-2,4-dione] | 55 | – |
| O=C(NC1CC1)c1ccc(N2C(=O)N/C(=C\c3ccncc3)C2=O)cc1 [Compound 50, N-Cyclopropyl-4-{2,5-dioxo-4-[1-pyridin-4-yl-meth-(Z)-ylidene]-imidazolidin-1-yl}-benzamide] | 63 | – |
| CC(C)(CO)CN1C(=O)N/C(=C\c2ccncc2)C1=O [Compound 52, 3-(3-Hydroxy-2,2-dimethyl-propyl)-5-[1-pyridin-4-yl-meth-(Z)-ylidene]-imidazolidine-2,4-dione] | 42 | – |
| O=C1N/C(=C\c2ccncc2)C(=O)N1c1cccc(C(F)(F)F)c1 [Compound 16, 5-[1-Pyridin-4-yl-meth-(Z)-ylidene]-3-(3-triftuoromethyl-phenyl)-imidazolidine-2,4-dione] | 77 | – |
| CSc1ccc(N2C(=O)N/C(=C\c3ccncc3)C2=O)cc1 [Compound 8, 3-(4-Methylsulfanyl-phenyl)-5-[1-pyridin-4-yl-meth-(Z)-ylidene]-imidazolidine-2,4-dione] | 70 | – |
